This note sets out measurements from ChEMBL document CHEMBL1129908, “ECD peptides inhibit in vitro fertilization in mice” (Bioorg Med Chem Lett, 1997).

Where a SMILES comes first, the peptide text is derived from it.

For the assay, the species on record is Mus musculus. Kind of assay: Tested for inhibition of sperm-egg fusion in in vitro mouse fertilization assays. The class given is functional.

As usually defined, the IC50 is the midpoint of a concentration-inhibition curve. A higher IC50 goes with weaker potency. Consider `CC(C)C[C@H](NC(=O)[C@H](CCCN=C(N)N)NC(=O)[C@@H](N)CS)C(=O)N[C@@H](C)C(=O)N[C@@H](CCC(N)=O)C(=O)N[C@@H](CC(=O)O)C(=O)N[C@@H](CCC(=O)O)C(=O)N[C@@H](C)C(=O)N[C@@H](CC(=O)O)C(=O)N[C@H](C(=O)N[C@H](C(=O)N[C@@H](CCC(=O)O)C(=O)N[C@@H](Cc1ccc(O)cc1)C(=O)N[C@@H](CS)C(=O)O)[C@@H](C)O)C(C)C` (H-CRLAQDEADVTEYC-OH), for which the IC50 was found to be 250 µM.
